Legend:
Assay in all cases: Test D controlled growth environment herbicide test, pre- and postemergence
Type in all cases: in vivo
[1] = system: chamomile (scentless chamomile, Matricaria inodora)
In short: (§1)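 Rating is visual, 0–100 scale (100 = complete control), made against untreated plants 14–21 d after treatment in controlled growth conditions. Postemergence sprays went onto 1- to 4-leaf plants in peat medium; preemergence sprays onto silt loam after sowing; formulation included a surfactant.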

kochia (Kochia scoparia) = system: kochia (Kochia scoparia)
In short: as §1

[2] = system: field violet (Viola arvensis)
In short: as §1

[3] = system: lambsquarters (Chenopodium album)
In short: as §1

[4] = system: speedwell (bird's-eye speedwell, Veronica persica)
In short: as §1

[5] = system: Russian thistle (Salsola kali)
In short: as §1

[6] = system: oilseed rape (Brassica napus)
In short: as §1

[7] = system: bromegrass, downy (downy bromegrass, Bromus tectorum)
In short: as §1

[8] = system: blackgrass (Alopecurus myosuroides)
In short: as §1

[9] = system: oat, wild (wild oat, Avena fatua)
In short: as §1

[10] = system: galium (catchweed bedstraw, Galium aparine)
In short: as §1

[11] = system: buckwheat, wild (wild buckwheat, Polygonum convolvulus)
In short: as §1

[12] = system: pigweed (Amaranthus retroflexus)
In short: as §1

[13] = Postemergence, 31 g ai/ha, scale 0 to 100 (0 no effect, 100 complete control)
[14] = Postemergence, 125 g ai/ha, visual rating on scale 0 (no effect) to 100 (complete control), 14 to 21 d
[15] = Postemergence, 250 g ai/ha, scale 0 to 100 (0 no effect, 100 complete control)
[16] = Preemergence, 62 g ai/ha, scale 0 to 100 (0 no effect, 100 complete control)
[17] = Preemergence, 125 g ai/ha, scale 0 to 100 (0 no effect, 100 complete control)
[18] = Preemergence, 250 g ai/ha, scale 0 to 100 (0 no effect, 100 complete control)
[19] = postemergence, 62 g ai/ha, scale 0 to 100, 0 no effect, 100 complete control

## Cc1ccc(-c2c(O)c(Br)nn(C)c2=O)c2ccccc12 [Compound 52]
[1]; [13]
  Chamomile plant response rating: 85
[1]; [14]
  Plant response rating, Chamomile: 100
[1]; [15]
  Plant response rating, Chamomile: 100
[1]; Preemergence, 31 g ai/ha
  Plant response rating (scale of 0 to 100), Chamomile: 60
[1]; [16]
  Plant response rating, Chamomile: 100
[1]; [17]
  Plant response rating, Chamomile: 100
[1]; [18]
  Plant response rating, Chamomile: 100
[1]; [19]
  Plant response rating, Chamomile: 100
Kochia (Kochia scoparia); [13]
  Kochia plant response rating: 0
Kochia (Kochia scoparia); [14]
  Plant response rating, Kochia: 55
Kochia (Kochia scoparia); [15]
  Plant response rating, Kochia: 65
Kochia (Kochia scoparia); Preemergence, 31 g ai/ha
  Plant response rating (scale of 0 to 100), Kochia: 15
Kochia (Kochia scoparia); [16]
  Plant response rating, Kochia: 35
Kochia (Kochia scoparia); [17]
  Plant response rating, Kochia: 40
Kochia (Kochia scoparia); [18]
  Plant response rating, Kochia: 90
Kochia (Kochia scoparia); [19]
  Plant response rating, Kochia: 20
[2]; [13]
  Field Violet plant response rating: 35
[2]; [14]
  Plant response rating, Field Violet: 75
[2]; [15]
  Plant response rating, Field Violet: 75
[2]; Preemergence, 31 g ai/ha
  Plant response rating (scale of 0 to 100), Field Violet: 0
[2]; [16]
  Plant response rating, Field Violet: 10
[2]; [17]
  Plant response rating, Field Violet: 75
[2]; [18]
  Plant response rating, Field Violet: 85
[2]; [19]
  Plant response rating, Field Violet: 65
[3]; [13]
  Lambsquarters plant response rating: 75
[3]; [14]
  Plant response rating, Lambsquarters: 75
[3]; [15]
  Plant response rating, Lambsquarters: 90
[3]; Preemergence, 31 g ai/ha
  Plant response rating (scale of 0 to 100), Lambsquarters: 35
[3]; [16]
  Plant response rating, Lambsquarters: 90
[3]; [17]
  Plant response rating, Lambsquarters: 100
[3]; [18]
  Plant response rating, Lambsquarters: 100
[3]; [19]
  Plant response rating, Lambsquarters: 75
[4]; [13]
  Speedwell plant response rating: 70
[4]; [14]
  Plant response rating, Speedwell: 100
[4]; [15]
  Plant response rating, Speedwell: 100
[4]; Preemergence, 31 g ai/ha
  Plant response rating (scale of 0 to 100), Speedwell: 50
[4]; [16]
  Plant response rating, Speedwell: 100
[4]; [17]
  Plant response rating, Speedwell: 95
[4]; [18]
  Plant response rating, Speedwell: 100
[4]; [19]
  Plant response rating, Speedwell: 85
[5]; [13]
  Russian Thistle plant response rating: 20
[5]; [14]
  Plant response rating, Russian Thistle: 45
[5]; [15]
  Plant response rating, Russian Thistle: 55
[5]; Preemergence, 31 g ai/ha
  Plant response rating (scale of 0 to 100), Russian Thistle: 0
[5]; [16]
  Plant response rating, Russian Thistle: 0
[5]; [17]
  Plant response rating, Russian Thistle: 0
[5]; [18]
  Plant response rating, Russian Thistle: 0
[5]; [19]
  Plant response rating, Russian Thistle: 35
[6]; [13]
  Oilseed Rape plant response rating: 0
[6]; [14]
  Plant response rating, Oilseed Rape: 65
[6]; [15]
  Plant response rating, Oilseed Rape: 80
[6]; Preemergence, 31 g ai/ha
  Plant response rating (scale of 0 to 100), Oilseed Rape: 0
[6]; [16]
  Plant response rating, Oilseed Rape: 0
[6]; [17]
  Plant response rating, Oilseed Rape: 0
[6]; [18]
  Plant response rating, Oilseed Rape: 55
[6]; [19]
  Plant response rating, Oilseed Rape: 5
[7]; [13]
  Bromegrass, Downy plant response rating: 0
[7]; [14]
  Plant response rating, Bromegrass, Downy: 0
[7]; [15]
  Plant response rating, Bromegrass, Downy: 10
[7]; Preemergence, 31 g ai/ha
  Plant response rating (scale of 0 to 100), Bromegrass, Downy: 0
[7]; [16]
  Plant response rating, Bromegrass, Downy: 0
[7]; [17]
  Plant response rating, Bromegrass, Downy: 15
[7]; [18]
  Plant response rating, Bromegrass, Downy: 20
[7]; [19]
  Plant response rating, Bromegrass, Downy: 0
[8]; [13]
  Blackgrass plant response rating: 10
[8]; [14]
  Plant response rating, Blackgrass: 15
[8]; [15]
  Plant response rating, Blackgrass: 40
[8]; Preemergence, 31 g ai/ha
  Plant response rating (scale of 0 to 100), Blackgrass: 20
[8]; [16]
  Plant response rating, Blackgrass: 20
[8]; [17]
  Plant response rating, Blackgrass: 65
[8]; [18]
  Plant response rating, Blackgrass: 65
[8]; [19]
  Plant response rating, Blackgrass: 15
[9]; [13]
  Oat, Wild plant response rating: 5
[9]; [14]
  Plant response rating, Oat, Wild: 5
[9]; [15]
  Plant response rating, Oat, Wild: 15
[9]; Preemergence, 31 g ai/ha
  Plant response rating (scale of 0 to 100), Oat, Wild: 25
[9]; [16]
  Plant response rating, Oat, Wild: 25
[9]; [17]
  Plant response rating, Oat, Wild: 25
[9]; [18]
  Plant response rating, Oat, Wild: 30
[9]; [19]
  Plant response rating, Oat, Wild: 5
[10]; [13]
  Galium plant response rating: 90
[10]; [14]
  Plant response rating, Galium: 98
[10]; [15]
  Plant response rating, Galium: 100
[10]; Preemergence, 31 g ai/ha
  Plant response rating (scale of 0 to 100), Galium: 70
[10]; [16]
  Plant response rating, Galium: 100
[10]; [17]
  Plant response rating, Galium: 90
[10]; [18]
  Plant response rating, Galium: 95
[10]; [19]
  Plant response rating, Galium: 95
[11]; [13]
  Buckwheat, Wild plant response rating: 100
[11]; [14]
  Plant response rating, Buckwheat, Wild: 100
[11]; [15]
  Plant response rating, Buckwheat, Wild: 100
[11]; Preemergence, 31 g ai/ha
  Plant response rating (scale of 0 to 100), Buckwheat, Wild: 20
[11]; [16]
  Plant response rating, Buckwheat, Wild: 20
[11]; [17]
  Plant response rating, Buckwheat, Wild: 55
[11]; [18]
  Plant response rating, Buckwheat, Wild: 100
[11]; [19]
  Plant response rating, Buckwheat, Wild: 100
[12]; [13]
  Pigweed plant response rating: 35
[12]; [14]
  Plant response rating, Pigweed: 75
[12]; [15]
  Plant response rating, Pigweed: 80
[12]; Preemergence, 31 g ai/ha
  Plant response rating (scale of 0 to 100), Pigweed: 60
[12]; [16]
  Plant response rating, Pigweed: 55
[12]; [17]
  Plant response rating, Pigweed: 65
[12]; [18]
  Plant response rating, Pigweed: 90
[12]; [19]
  Plant response rating, Pigweed: 40
